In patent publication US20250235510A1, “COMBINATION THERAPY USING GLUCOSE-DEPENDENT INSULINOTROPIC POLYPEPTIDE RECEPTOR ANTAGONIST COMPOUNDS AND GLP-1 RECEPTOR AGONIST PEPTIDES” (Pfizer Inc., priority 2024, published 2025) one finds IC50 data, which are given here for two compounds.

The target of the assay is T1, human Glucose-dependent Insulinotropic Polypeptide Receptor (hGIPR) (Homo sapiens, UniProt P48546).
T1 sequence (P48546 22-466): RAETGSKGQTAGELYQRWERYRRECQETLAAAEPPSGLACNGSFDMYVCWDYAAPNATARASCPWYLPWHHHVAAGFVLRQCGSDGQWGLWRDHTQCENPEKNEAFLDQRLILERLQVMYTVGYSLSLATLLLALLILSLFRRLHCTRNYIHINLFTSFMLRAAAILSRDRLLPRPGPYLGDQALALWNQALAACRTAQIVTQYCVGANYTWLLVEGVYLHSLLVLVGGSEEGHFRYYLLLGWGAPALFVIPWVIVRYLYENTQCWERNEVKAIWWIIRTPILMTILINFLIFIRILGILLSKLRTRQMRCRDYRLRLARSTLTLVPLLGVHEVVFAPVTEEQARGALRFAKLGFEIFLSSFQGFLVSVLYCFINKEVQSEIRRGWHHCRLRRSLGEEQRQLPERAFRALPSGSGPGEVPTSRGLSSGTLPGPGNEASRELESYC
The assay is described as follows: Functional in vitro GIPR antagonist potency assay (intracellular cAMP, HTRF) in CHO-K1 cells stably expressing hGIPR. The format is cell-based. The following applies: 2 h compound incubation, then hGIP at estimated EC80 for 30 min. On the procedure:
The functional in vitro antagonist potency for test compounds was determined by monitoring intracellular cyclic adenosine monophosphate (cAMP) levels in Chinese hamster ovary (CHO)-K1 cells stably expressing the human Glucose-dependent Insulinotropic Polypeptide Receptor (hGIPR). Following agonist activation, hGIPR associates with the G-protein complex causing the Gas subunit to exchange bound guanosine diphosphate (GDP) for guanosine triphosphate (GTP), followed by dissociation of the Gas-GTP complex. The activated Gas subunit can couple to downstream effectors to regulate the levels of second messengers or cAMP within the cell. Thereby, determination of intracellular cAMP levels allows for pharmacological characterization. Intracellular cAMP levels are quantitated using a homogenous assay utilizing the Homogeneous Time Resolved Fluorescence (HTRF) technology from Perkin Elmer. […] The two entities compete for binding to a monoclonal anti-cAMP antibody labeled with cryptate. […]
([…]: 5% CO2), with a micro-clime lid. […] ([…]: 5% CO2), after which intracellular cAMP levels were quantified and samples measured as described previously. […]
Data were analyzed using the ratio of fluorescence intensity at 620 and 665 nm for each well, extrapolated from the cAMP standard curve to express data as nanomolar (nM) cAMP for each well. […]

As to `CC(C)c1ccc(NC(=O)N2CCC[C@H]2C(=O)Nc2ccc3cc(C(=O)O)ccc3c2)cc1` [Compound 41A, 6-[(1-{[4-(propan-2-yl)phenyl]carbamoyl}prolyl)amino] naphthalene-2-carboxylic acid], the IC50 was 160 nM.

As to `CC(C)c1ccc(NC(=O)N2CCC[C@H]2C(=O)Nc2ccc(-c3ccc(C(=O)O)cc3)cc2)cc1` [Compound 44A, 4′-[(1-{[4-(propan-2-yl)phenyl]carbamoyl}prolyl)amino][1,1′-biphenyl]-4-carboxylic acid], the half-inhibitory concentration (IC50) is 6.8 nM.
